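96-well plates; 48 h exposure; 5 concentrations. Endpoints by linear interpolation between flanking doses. Not reached: highest tested concentration assigned. GI50: concentration for 50% inhibition of growth. TGI denotes the concentration required for complete inhibition of growth.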

Among the test systems are K-562 leukemia; UO-31 renal; SF-268 CNS; CCRF-CEM leukemia; DU-145 prostate; TK-10 renal; A498 renal; MDA-MB-231 breast; SNB-19 CNS; HS 578T breast.
Holding throughout (experiment): NCI-60 cell line screen, 48 h

Consider `C/C(=N/S(=O)(=O)c1ccc(Cl)c(Cl)c1)OCC(C)(C)C`, for which the TGI in the assay with K-562 leukemia, with UO-31 renal, with SF-268 CNS, in the assay with CCRF-CEM leukemia, in the assay with DU-145 prostate and with TK-10 renal was above 100 µM throughout. For the same molecule, the TGI in the assay on A498 renal, in the assay with MDA-MB-231 breast, with SNB-19 CNS and in the assay on HS 578T breast was above 100 µM each time.
In the case of `C(=N\Nc1ccccn1)/c1ccccn1`, the GI50 was 412 nM with K-562 leukemia; 267 nM with UO-31 renal; 0.309 µM in the assay on SF-268 CNS; 446 nM in the assay on CCRF-CEM leukemia; 0.324 µM in the assay on DU-145 prostate; 273 nM in the assay with A498 renal. Moreover, the GI50 in the assay on MDA-MB-231 breast was 0.501 µM; in the assay on SNB-19 CNS, 0.547 µM; in the assay with HS 578T breast, 1.41 µM. Moreover, the TGI was above 100 µM with K-562 leukemia; above 34.1 µM in the assay on UO-31 renal; above 23.4 µM in the assay on SF-268 CNS; above 100 µM in the assay on CCRF-CEM leukemia; above 100 µM with TK-10 renal; above 100 µM in the assay with MDA-MB-231 breast. Further, the TGI with SNB-19 CNS and in the assay with HS 578T breast was above 100 µM throughout.
For `c1ccc(Cc2nc3ccc(Nc4ncnc5ccccc45)cc3[nH]2)cc1`, the GI50 is above 25000 nM in the assay with K-562 leukemia; 8980 nM with UO-31 renal; above 25 µM in the assay on SF-268 CNS; above 25000 nM in the assay on CCRF-CEM leukemia; above 25 µM in the assay with DU-145 prostate; 5.85 µM in the assay with TK-10 renal. Also, the GI50 with A498 renal is 9410 nM; in the assay with MDA-MB-231 breast, above 25 µM; in the assay with SNB-19 CNS it was above 25 µM; in the assay with HS 578T breast, above 25 µM. Also, the TGI in the assay on K-562 leukemia, with UO-31 renal, in the assay on SF-268 CNS, with CCRF-CEM leukemia, in the assay with DU-145 prostate and in the assay on TK-10 renal was above 25 µM in each case. The TGI in the assay with A498 renal, in the assay on MDA-MB-231 breast, with SNB-19 CNS and in the assay with HS 578T breast was above 25 µM throughout.
In the case of `NC(=O)c1cnc(N[C@@H]2CCCC[C@@H]2N)nc1Nc1cccc(-n2nccn2)c1`, the GI50 was 3940 nM in the assay with K-562 leukemia; 3320 nM in the assay on UO-31 renal; 5.82 µM with SF-268 CNS; 5000 nM with CCRF-CEM leukemia; 3.84 µM with DU-145 prostate; 5.55 µM in the assay with TK-10 renal. The GI50 is 4620 nM with A498 renal, 4.13 µM in the assay on MDA-MB-231 breast, 10.7 µM with SNB-19 CNS and 3.37 µM with HS 578T breast. Also, the TGI with K-562 leukemia is 14.7 µM; in the assay on UO-31 renal, 14.7 µM; with SF-268 CNS, 19.7 µM; with CCRF-CEM leukemia it was 19.8 µM; in the assay with DU-145 prostate, 15.8 µM; with TK-10 renal, 17.8 µM. For the same molecule, the TGI in the assay with A498 renal amounted to 17.4 µM; in the assay with MDA-MB-231 breast it was 17.3 µM; in the assay with SNB-19 CNS, 25 µM; in the assay with HS 578T breast, 20.7 µM.
As to `COc1ccccc1-[n+]1cc(-c2ccc(-c3ccccc3)cc2)n2c1CCCCC2`, the GI50 in the assay on K-562 leukemia was 173 nM; in the assay with UO-31 renal, 2190 nM; with SF-268 CNS, 0.423 µM; with CCRF-CEM leukemia it was 224 nM; in the assay on DU-145 prostate it was 0.444 µM; with TK-10 renal, 0.638 µM. For the same molecule, the GI50 in the assay with A498 renal is 615 nM; with MDA-MB-231 breast it was 0.276 µM; in the assay with SNB-19 CNS, 0.261 µM; with HS 578T breast, 1.07 µM. Further, the TGI with K-562 leukemia was determined as 13.1 µM; with UO-31 renal, 11.1 µM; in the assay with SF-268 CNS it was 14.8 µM; with CCRF-CEM leukemia, 23.9 µM; in the assay with DU-145 prostate it was 14.8 µM; in the assay with TK-10 renal it was 13 µM. Besides, the TGI in the assay on A498 renal was determined as 7.5 µM; in the assay on MDA-MB-231 breast, 2.39 µM; in the assay with SNB-19 CNS it was 12.1 µM; with HS 578T breast it was 31.8 µM.
With `Cc1ccc(C(=O)Nc2ccc(CN3CCN(C)CC3)c(C(F)(F)F)c2)cc1C#Cc1cnc(N)cc1C#N`, the GI50 was 5 nM with K-562 leukemia; 94.9 nM with UO-31 renal; 0.2 µM with SF-268 CNS; 460 nM in the assay on CCRF-CEM leukemia; 0.127 µM with DU-145 prostate; 0.19 µM with TK-10 renal. For the same molecule, the GI50 is 159 nM in the assay on A498 renal, 0.112 µM in the assay on MDA-MB-231 breast, 0.539 µM with SNB-19 CNS and 0.143 µM in the assay with HS 578T breast. The TGI in the assay on K-562 leukemia came out at 6.12 µM; with UO-31 renal it was 0.442 µM; in the assay with SF-268 CNS it was 1.2 µM; in the assay with CCRF-CEM leukemia, 9.61 µM; in the assay on DU-145 prostate, 0.838 µM; with TK-10 renal, 0.833 µM. The TGI in the assay on A498 renal came out at 0.701 µM; in the assay with MDA-MB-231 breast it was 0.621 µM; in the assay with SNB-19 CNS, 1.3 µM; in the assay with HS 578T breast, 1.33 µM.
For the molecule `COc1cc(Nc2nc3cc(N)cc(N)c3nc2-c2ccccc2)cc(OC)c1`, the GI50 in the assay with K-562 leukemia is 27500 nM; with UO-31 renal, 8870 nM; in the assay on SF-268 CNS, 5.59 µM; with DU-145 prostate, 22.7 µM; in the assay on TK-10 renal, 13.1 µM; in the assay on A498 renal it was 4910 nM. For the same molecule, the GI50 is 6.5 µM in the assay on MDA-MB-231 breast, 58.3 µM in the assay on SNB-19 CNS and 10.9 µM with HS 578T breast. Also, the TGI in the assay with K-562 leukemia was above 100 µM; in the assay on UO-31 renal, 45 µM; with SF-268 CNS, 55.8 µM; in the assay with CCRF-CEM leukemia, 0.167 µM; with DU-145 prostate, above 100 µM; with TK-10 renal it was 42.7 µM. Moreover, the TGI with A498 renal is 22.4 µM; with MDA-MB-231 breast it was 34.3 µM; in the assay with SNB-19 CNS, above 100 µM; in the assay with HS 578T breast it was 63.8 µM.
As to `CN(C)CCCn1c2c(c3cnccc3c1=O)C(=O)c1ccccc1-2`, the GI50 is 474 nM in the assay on K-562 leukemia; 183 nM with UO-31 renal; 0.62 µM in the assay with SF-268 CNS; 318 nM in the assay with CCRF-CEM leukemia; 0.49 µM with DU-145 prostate; 0.721 µM in the assay on TK-10 renal. Moreover, the GI50 in the assay on A498 renal was 1170 nM; in the assay on MDA-MB-231 breast, 0.623 µM; with SNB-19 CNS it was 0.362 µM; in the assay on HS 578T breast it was 1.04 µM. In addition, the TGI with K-562 leukemia turned out to be 12.5 µM; with UO-31 renal, 2.55 µM; with SF-268 CNS, 7.24 µM; with CCRF-CEM leukemia, 2.87 µM; in the assay on DU-145 prostate, 3.43 µM; with TK-10 renal, 27.6 µM. Also, the TGI in the assay with A498 renal worked out at 5.95 µM; in the assay with MDA-MB-231 breast, 3.1 µM; with SNB-19 CNS it was 3.96 µM; in the assay on HS 578T breast, 7.53 µM.
Consider `CC(=O)Nc1ccc(/C=C/[N+](=O)[O-])cc1`, for which the TGI in the assay with K-562 leukemia is 8.57 µM; with UO-31 renal it was 4.58 µM; in the assay with SF-268 CNS, 11.2 µM; in the assay on CCRF-CEM leukemia, 7.48 µM; in the assay on DU-145 prostate, above 43.4 µM; with TK-10 renal it was 6.89 µM. Moreover, the TGI was 15.2 µM with A498 renal, 5.12 µM in the assay on MDA-MB-231 breast, 20.5 µM in the assay with SNB-19 CNS and 32.6 µM in the assay with HS 578T breast.
As to `COc1ccc(-n2c(SCc3cc(OC)c(OC)c(OC)c3)nc3ccc(C)cc3c2=O)c(OC)c1`, the GI50 is 2990 nM with K-562 leukemia; 2760 nM in the assay on UO-31 renal; 7.88 µM in the assay with SF-268 CNS; 2380 nM in the assay on CCRF-CEM leukemia; 3.72 µM in the assay on DU-145 prostate; 93.8 µM in the assay with TK-10 renal. The GI50 was 2250 nM in the assay on A498 renal, 4.15 µM with MDA-MB-231 breast, 6.99 µM with SNB-19 CNS and 3.31 µM in the assay on HS 578T breast. Besides, the TGI was above 100 µM in the assay with K-562 leukemia; above 100 µM with UO-31 renal; above 100 µM in the assay with SF-268 CNS; 6.69 µM with CCRF-CEM leukemia; above 100 µM with DU-145 prostate; above 100 µM in the assay on TK-10 renal. The TGI in the assay on A498 renal was 40.3 µM; with MDA-MB-231 breast it was above 100 µM; in the assay on SNB-19 CNS, above 100 µM; with HS 578T breast, above 100 µM.
Turning to `CC(=O)OC[C@H]1O[C@@H](n2ccc(=O)[nH]c2=O)[C@H](OC(C)=O)[C@@H]1OC(C)=O`, the GI50 is above 100000 nM in the assay on K-562 leukemia; above 100000 nM in the assay with UO-31 renal; above 100 µM in the assay with SF-268 CNS; above 100000 nM in the assay on CCRF-CEM leukemia; above 100 µM in the assay on DU-145 prostate; above 100 µM in the assay on TK-10 renal. Moreover, the GI50 in the assay with A498 renal was above 100000 nM; in the assay on MDA-MB-231 breast, above 100 µM; in the assay on SNB-19 CNS, above 100 µM; in the assay with HS 578T breast, above 100 µM. The TGI in the assay with K-562 leukemia, with UO-31 renal, in the assay on SF-268 CNS, in the assay with CCRF-CEM leukemia, with DU-145 prostate and with TK-10 renal was above 100 µM throughout. Besides, the TGI in the assay with A498 renal, with MDA-MB-231 breast, with SNB-19 CNS and in the assay with HS 578T breast was above 100 µM each time.
For `CC12CCC3C(CC=C4CC(O)CCC43C)C1C/C(=C\N1CCCC1)C2=O` (stereo unspecified), the GI50 in the assay with K-562 leukemia was 55800 nM; in the assay with UO-31 renal it was 67200 nM; with SF-268 CNS it was above 100 µM; in the assay on CCRF-CEM leukemia, 79300 nM; in the assay on DU-145 prostate it was above 100 µM; in the assay on TK-10 renal it was above 100 µM. The GI50 in the assay on A498 renal is above 100000 nM; in the assay with MDA-MB-231 breast it was 40.8 µM; in the assay on SNB-19 CNS, above 100 µM; in the assay with HS 578T breast, 60.8 µM. Besides, the TGI in the assay with K-562 leukemia, in the assay on UO-31 renal, in the assay on SF-268 CNS, in the assay with CCRF-CEM leukemia, with DU-145 prostate and with TK-10 renal was above 100 µM each time. The TGI in the assay on A498 renal, with MDA-MB-231 breast, with SNB-19 CNS and in the assay on HS 578T breast was above 100 µM in each case.
On to `O=C(O)c1cc2ccccc2c(O)c1O`, for which the TGI in the assay on K-562 leukemia is above 58.8 µM; in the assay with UO-31 renal, 35.4 µM; with SF-268 CNS, 32 µM; in the assay with CCRF-CEM leukemia, above 58.6 µM; with DU-145 prostate it was 32.3 µM; in the assay on TK-10 renal it was 40.7 µM. Further, the TGI was found to be 51.7 µM in the assay with A498 renal, 32.7 µM in the assay with MDA-MB-231 breast, 35.8 µM with SNB-19 CNS and 45.4 µM with HS 578T breast.
For `O=C(O)c1ccc2c(c1)Cc1cc([N+](=O)[O-])ccc1-2`, the TGI with K-562 leukemia, in the assay on UO-31 renal, with SF-268 CNS, with CCRF-CEM leukemia, in the assay on DU-145 prostate and with TK-10 renal was above 100 µM each time. Further, the TGI with A498 renal, in the assay with MDA-MB-231 breast, in the assay with SNB-19 CNS and in the assay with HS 578T breast was above 100 µM in each case.

The values above are taken from PubChem BioAssay (NCI).
